Measurements: publication PMC7824341, “Phenylhydrazone and Quinazoline Derivatives from the Cold-Seep-Derived Fungus Penicillium oxalicum” (Marine Drugs, 2020)
In brackets after ≈: the same amount, converted by molar mass. Like-named read-outs stand apart in the source and are kept apart here.

Legend:
[1] = test system: Chattonella marina; experiment: Inhibition of marine microalgae; type: cell-based; settings: microalga Chattonella marina; for IC50: Chattonella marina, read-out: IC50 C. marina
Procedure: (§1) Mariculture is often threatened by harmful algal blooms and pathogenic bacteria. Compounds 1–5 and dankasterone A were assayed for inhibition of the three microalgae Chattonella marina, Heterosigma akashiwo, and Prorocentrum donghaiense, and the results are shown in Table 4. […] In addition, their inhibition against four marine-derived bacterial pathogens including Vibrio anguillarum, Vibrio harveyi, Vibrio parahaemolyticus, and Vibrio splendidus was detected using the disk diffusion method. […] The MIC values of active molecules were also measured, but only those of 4 and 5 (8 μg/mL) appeared lower than 10 μg/mL. […] In view of the above inhibitory effects of 1, 4, 5, and dankasterone A on the microalgal and bacterial species, their toxicities to the marine zooplankton Artemia salina were also tested.

[2] = test system: Prorocentrum donghaiense; experiment: Inhibition of marine microalgae; type: cell-based; settings: microalga Prorocentrum donghaiense; for IC50: Prorocentrum donghaiense, read-out: IC50 P. donghaiense
Procedure: as §1

[3] = test system: Heterosigma akashiwo; experiment: Inhibition of marine microalgae; type: cell-based; settings: microalga Heterosigma akashiwo; for IC50: Heterosigma akashiwo, read-out: IC50 H. akashiwo
Procedure: as §1

[4] = test system: Vibrio anguillarum; experiment: Antibacterial disk diffusion method; type: cell-based; settings: at 20 μg/disk; for zone of inhibition at 20 µg/disc: Vibrio anguillarum, read-out: Inhibitory Zone Diameter V. anguillarum
Procedure: as §1

[5] = test system: Vibrio splendidus; experiment: Antibacterial disk diffusion method; type: cell-based; settings: at 20 μg/disk; for zone of inhibition at 20 µg/disc: Vibrio splendidus, read-out: Inhibitory Zone Diameter V. splendidus
Procedure: as §1

[6] = test system: Vibrio parahaemolyticus; experiment: Antibacterial disk diffusion method; type: cell-based; settings: at 20 μg/disk, read-out: Inhibitory Zone Diameter V. parahaemolyticus
Procedure: as §1

[7] = test system: Vibrio harveyi; experiment: Antibacterial disk diffusion method; type: cell-based; settings: at 20 μg/disk, read-out: Inhibitory Zone Diameter V. harveyi
Procedure: as §1

[8] = in vivo; settings: in vivo; marine zooplankton Artemia salina
Procedure: as §1

[9] = test system: V. harveyi and V. parahaemolyticus; experiment: MIC of active molecules against marine-derived bacterial pathogens; type: cell-based, Vibrio harveyi, Vibrio parahaemolyticus; settings: bacterial strain not given, active molecules were those inhibiting V. harveyi and V. parahaemolyticus
Procedure: as §1

[10] = test system: Artemia salina; experiment: in vivo; settings: marine zooplankton Artemia salina
Procedure: as §1

SMILES	IC50 [1]	IC50 [2]	IC50 [3]	zone of inhibition at 20 µg/disc [4]	zone of inhibition at 20 µg/disc [5]	zone of inhibition at 20 µg/disc [6]	zone of inhibition at 20 µg/disc [7]	LC50 [8]	IC50 C. marina [1]	IC50 P. donghaiense [2]	MIC ([9]; read-out: MIC)	Inhibitory Zone Diameter V. anguillarum [4]	IC50 H. akashiwo [3]	MIC [9]	Inhibitory Zone Diameter V. splendidus [5]	LC50 A. salina [10]
CC(C)C(C)C=CC(C)C1CCC(=O)C23CC(=O)C4=CC(=NNc5ccccc5C(=O)O)CCC4(C)C2CCC13C (stereo not shown) [Compound 1, Penoxahydrazone A]	1.2 mg/L (≈ 2.15 µM)	0.68 mg/L (≈ 1.22 µM)	3.7 mg/L (≈ 6.62 µM)	0 mm	0 mm	> 10 mm	> 10 mm	58 mg/L (≈ 104 µM)	–	–	–	–	–	–	–	–
COC(=O)C(Cc1ccc(O)cc1)n1cnc2ccccc2c1=O (stereo not shown) [Compound 4, Penoxazolone A]	–	–	8.1 mg/L (≈ 25 µM)	–	7.3 mm	> 10 mm	> 10 mm	> 100 mg/L	2.8 mg/L (≈ 8.63 µM)	0.57 mg/L (≈ 1.76 µM)	8 mg/L	7.0 mm	–	–	–	–
COC(=O)C(Cc1ccc(O)cc1)n1cnc2ccccc2c1=O (stereo not shown) [Compound 5, Penoxazolone B]	–	–	–	–	–	–	–	–	9.1 mg/L (≈ 28.1 µM)	1.2 mg/L (≈ 3.7 µM)	–	0 mm	9.0 mg/L (≈ 27.7 µM)	8 mg/L	7.0 mm	>100 mg/L
[K+].[K+].[O]=[Cr](=[O])([O-])[O][Cr](=[O])(=[O])[O-] [Compound K2Cr2O7, K2Cr2O7, reference compound]	–	–	–	–	–	–	–	–	0.60 mg/L	1.2 mg/L	–	–	2.4 mg/L	–	–	18 mg/L
O=C(N[C@H](CO)[C@H](O)c1ccc([N+](=O)[O-])cc1)C(Cl)Cl [chloramphenicol, reference compound]	–	–	–	18 mm	23 mm	28 mm	29 mm	–	–	–	–	–	–	–	–	–
CC(C)[C@@H](C)/C=C/[C@@H](C)[C@H]1CCC(=O)[C@]23CC(=O)C4=CC(=O)CC[C@]4(C)[C@H]2CC[C@]13C [dankasterone A]	1.9 mg/L (≈ 4.47 µM)	1 mg/L (≈ 2.36 µM)	4.6 mg/L (≈ 10.8 µM)	7 mm	0 mm	> 10 mm	> 10 mm	43 mg/L (≈ 101 µM)	–	–	–	–	–	–	–	–
